Results: US20110190392A1, “Polysaccharide Based Antimicrobial Formulations” (priority 2010, published 2011)

Tests used:
Assay type in all cases: cell-based
Ad-5 = experiment: Antiviral log reduction (Table 2B)
Influenza A = experiment: Antiviral log reduction (Table 2B)
[1] = test system: Enterococcus faecium [VRE] ATCC 51559; experiment: MBC of NVC-422 (Table 2A)
[2] = test system: Staphylococcus hominis ATCC 27844; experiment: MBC of NVC-422 (Table 2A); settings: ATCC27844
[3] = test system: Proteus mirabilis ATCC 29245; experiment: MBC of NVC-422 (Table 2A); settings: ATCC29245
[4] = test system: Acinetobacter calcoaceticus ATCC 51432; experiment: MBC of NVC-422 (Table 2A); settings: ATCC51432
[5] = test system: Staphylococcus aureus ATCC 29213; experiment: MBC of NVC-422 (Table 2A); settings: ATCC29213
Rhinovirus-39 = experiment: Antiviral log reduction (Table 2B)
HSV-1 = experiment: Antiviral log reduction (Table 2B)
[6] = test system: Klebsiella pneumoniae ATCC 10031; experiment: MBC of NVC-422 (Table 2A); settings: ATCC10031
[7] = test system: Enterobacter aerogenes ATCC 51697; experiment: MBC of NVC-422 (Table 2A); settings: Klebsiella aerogenes, ATCC51697
[8] = test system: Serratia marcescens ATCC 13880; experiment: MBC of NVC-422 (Table 2A); settings: ATCC13880
[9] = test system: Candida glabrata ATCC 90030; experiment: MBC of NVC-422 (Table 2A); settings: Nakaseomyces glabratus, ATCC90030
[10] = test system: Candida albicans ATCC 10231; experiment: MBC of NVC-422 (Table 2A); settings: ATCC10231
[11] = test system: Escherichia coli ATCC 25922; experiment: MBC of NVC-422 (Table 2A); settings: ATCC25922
[12] = test system: Pseudomonas aeruginosa ATCC 27853; experiment: MBC of NVC-422 (Table 2A); settings: ATCC27853
[13] = test system: Staphylococcus epidermidis ATCC 12228; experiment: MBC of NVC-422 (Table 2A); settings: ATCC12228
[14] = test system: Enterococcus faecalis ATCC 29212; experiment: MBC of NVC-422 (Table 2A); settings: ATCC29212
[15] = test system: Acinetobacter baumanii ATCC 19606; experiment: MBC of NVC-422 (Table 2A); settings: Acinetobacter baumannii, ATCC19606
[16] = test system: Serratia marcescens ATCC 14756; experiment: MBC of NVC-422 (Table 2A); settings: ATCC14756
[17] = test system: Staphylococcus aureus ATCC 6358; experiment: MBC of NVC-422 (Table 2A); settings: ATCC6358
[18] = test system: Haemophilus influenzae ATCC 49144; experiment: MBC of NVC-422 (Table 2A); settings: ATCC49144
[19] = test system: Staphylococcus aureus [MRSA] ATCC 33591; experiment: MBC of NVC-422 (Table 2A)
[20] = test system: Staphylococcus sciuri ATCC 49575; experiment: MBC of NVC-422 (Table 2A); settings: Mammaliicoccus sciuri, ATCC49575

For `Nc1ccn(C[C@@H](CO)OCP(=O)(O)O)c(=O)n1` [Cidofovir, reference compound], the “Log Reduction” value (Ad-5; (Ad5/A549 control)/Cidofovir, column 0.001%) was 0 and the “Log Reduction” value (Ad-5; (Ad5/A549 control)/Cidofovir, column 0.01%) was 0.
In the case of `CC(C)(CS(=O)(=O)O)N(Cl)Cl` [NVC-422, N,N-dichloro-2,2-dimethyltaurine], the “Log Reduction” value (Influenza A; concentration of NVC-422 0.01%) is reported as 0.3, the “Log Reduction” value (Influenza A; concentration of NVC-422 0.1%) is reported as 1.0 and the “Log Reduction” value (Influenza A; concentration of NVC-422 1.0%) is reported as >3.8. It also gave an MBC [1] of 0.5 µg/mL, an MBC [2] of 4 µg/mL and an MBC [3] of 1 µg/mL. The MBC [4] was 2 µg/mL, the MBC [5] was 2 µg/mL and the “Log Reduction” value (Rhinovirus-39; concentration of NVC-422 0.01%) was 1.7. The “Log Reduction” value (Rhinovirus-39; concentration of NVC-422 0.1%) was >1.5, the “Log Reduction” value (Ad-5; Ad-5 + 10% tears, concentration of NVC-422 0.001%) was 1.0 and the “Log Reduction” value (Ad-5; Ad-5 + 10% tears, concentration of NVC-422 0.01%) was 1.7. The “Log Reduction” value (Ad-5; Ad-5 + 10% tears, concentration of NVC-422 0.1%) was >3.8, the “Log Reduction” value (Ad-5; Ad-5, concentration of NVC-422 0.001%) was 2.8 and the “Log Reduction” value (Ad-5; Ad-5, concentration of NVC-422 0.01%) was 4.3. The “Log Reduction” value (Ad-5; Ad-5, concentration of NVC-422 0.1%) was >4.3, the “Log Reduction” value (HSV-1; HSV-1 + 10% tears, concentration of NVC-422 0.001%) was 4.5 and the “Log Reduction” value (HSV-1; HSV-1 + 10% tears, concentration of NVC-422 0.01%) was >4.5. The “Log Reduction” value (HSV-1; HSV-1, concentration of NVC-422 0.001%) was >4.5, the “Log Reduction” value (HSV-1; HSV-1, concentration of NVC-422 0.01%) was >4.5 and the MBC [6] was 0.25 µg/mL. It also gave an MBC [7] of 0.5 µg/mL, an MBC [8] of 1 µg/mL and an MBC [9] of 16 µg/mL. For the same compound, the MBC [10] was 32 µg/mL, the MBC [11] was 2 µg/mL and the MBC [12] was 1 µg/mL. It also gave an MBC [13] of 0.25 µg/mL, an MBC [14] of 0.5 µg/mL and an MBC [15] of 4 µg/mL. The MBC [16] was 2 µg/mL, the MBC [17] was 2 µg/mL and the MBC [18] was 0.5 µg/mL. For the same compound, the MBC [19] was 4 µg/mL and the MBC [20] was 0.12 µg/mL.
